Where no end group is shown, it is not given here. [ ]: non-standard residue; d: D form.
Experiments:
[1] = tested on: ASNHL-related tinnitus; assay: double-blind, randomized, placebo-controlled phase II study of AM-111 in ASNHL and associated tinnitus; format: in vivo, human; conditions: for Complete ASNHL-Related Tinnitus Remission in the Treated Ear, Frequency (%): mITT; for Number of Subjects with Tinnitus/Number of Subjects with Observation (%): Day 90, placebo 28/50 (56.0)
Method: A double-blind, randomized, placebo-controlled phase II study was conducted to evaluate the efficacy and safety of AM-111 in treating ASNHL and associated tinnitus. Eligible participants were aged 18 to 60 years and suffered from ASNHL (unilateral idiopathic sudden sensorineural hearing loss (ISSNHL), uni- or bilateral acute acoustic trauma (AAT)) with hearing loss of at least 30 dB and onset not more than 48 hours previously. The hearing loss was determined against a reference value: mean hearing threshold at the 3 most affected contiguous test frequencies (pure tone average, PTA) less corresponding mean hearing threshold of the contralateral ear (Plontke et al., 2007). In case of previously asymmetric hearing or bilateral ASNHL, thresholds from a previous audiogram or ISO-7029; 2000 norm values served as reference. The PTA frequencies determined at baseline remained fixed for all evaluations.
Exclusion criteria included history of Meniére's disease, autoimmune or radiation induced hearing […] loss, endolymphatic hydrops or fluctuating hearing loss, suspected perilymph fistula, membrane rupture or retrocochlear lesion, barotrauma, air-bone gap >20 dB in 3 contiguous frequencies, previous ASNHL incident within the past 6 weeks, and acute or chronic otitis media or otitis externa. Women who were breast feeding, pregnant or who planned a pregnancy during the study, or women of childbearing potential who declared being unwilling or unable to practice an effective method of […] contraception were excluded. Written informed consent was obtained from each patient prior to the performance of any study-specific procedures.
At baseline (Day 0), study participants were randomized to receive AM-111 (0.4 or 2.0 mg/mL) or placebo at a 2:1 ratio. The study consisted of a baseline assessment and 4 follow-up visits on Days 3, 7, 30, and 90. Baseline assessments included a general physical examination, vital signs, and a urine pregnancy test for women of childbearing age. At each study visit pure tone hearing thresholds, speech discrimination at 60 and 80 dB, and subjective tinnitus loudness were determined. Those patients reporting tinnitus were asked to rate its loudness “right now” on a numerical scale ranging from 0 (no tinnitus) to 10 (extremely loud).
Approximately 0.25 mL of the study drug was administered on Day 0 by intratympanic (i.t.) injection under local anesthesia through a small myringotomy with the patient's head placed in a position tilted 45° towards the unaffected ear. Patients remained in their reclined or supine position for approximately 30 minutes to allow for diffusion of the active substance into the cochlea. In case of bilateral AAT, only the worst affected ear was treated. Subjects whose PTA recovered <10 dB from baseline to Day 7 were given the option to receive oral prednisolone 50 mg (Ratiopharm, Ulm, Germany) b.i.d. for 5 days.
The sample size was determined based on an expected effect size of 0.6, a two-sided type I error rate of 5% and a statistical power of 80%.
Efficacy analyses were primarily performed on a modified “Intention to treat” (mITT) analysis set (treated patients with PTA measured on Day 3±1 or Day 7+4 days at most) and secondarily on the “Per Protocol” (PP) analysis set. The “Safety Population” analysis set included all patients who received an injection of the study medication. Random imputation was performed for missing PTA values at Days 7 and 30, and missing speech discrimination score (SDS) values at Day 7 based on the preceding value and the mean change observed in the respective treatment group (mITT set).
For continuous efficacy endpoints, analysis of covariance (ANCOVA) models were used including treatment group and initial frequency range as class effects, and baseline values of the respective endpoint as covariate. For the complete recovery rate, a logistic regression model was applied including treatment, initial frequency range, and baseline hearing loss as predictor variables. […]

[2] = tested on: models of cochlear insult; conditions: acute noise trauma, acute labyrinthitis, aminoglycoside ototoxicity, bacterial infection, cochlear ischemia, cochlear implantation trauma; cited from earlier work
[3] = tested on: KOS strain of HSV-1; assay: single cycle herpes simplex virus infection assay (virus yield), fetal rat cortex neurons; format: cell-based; conditions: for Pfu/culture: MOI 5, harvest 20 h postinfection, DMSO 1.33 × 10^6
Method: (§1) A single cycle herpes simplex virus infection assay was performed to determine the effect of JNK inhibitors on virus yield.
(§2) To prepare a 1 mM stock solution, 5.15 mg of D-JNKI-1 acetate was suspended in 1 ml of water, vortexed for 2 minutes, and sterilized by passage through a PES filter; 50 μL aliquots were prepared and stored at −20° C.
(§3) Human neuroblastoma cells (SH-SY5Y) were maintained in DMEM plus 10% fetal calf serum, 1 mM HEPES (Gibco) and 2 μg/ml gentamicin (Gibco). For differentiation, monolayers of cells were rinsed in PBS and then maintained in Neurobasal medium (Gibco) plus 2% B27 supplement and […] all-trans retinoic acid (ATRA). Primary fetal rat cortex cells were maintained in Neurobasal medium plus 2% B27, 2 mM glutamine and […] gentamicin.
(§4) Monolayers of SH-SY5Y human neuroblastoma cells differentiated by treatment with ATRA, or fetal rat cortex neurons were pre-treated with 10-20 μM D-JNKI-1, 40 μM SP600125 (Calbiochem), or DMSO (D2650, Sigma-Aldrich) vehicle control for 30 minutes prior to infection. Monolayers were infected with the KOS strain of HSV-1 at a multiplicity of infection (MOI) of 5 for 60 minutes under conditions of pre-treatment. Following the inoculation period, monolayers were incubated under pre-treatment conditions and harvested at 20 hours postinfection.
(§5) Cells and media were collected, and subjected to three rounds of freezing and thawing. Serial ten-fold dilutions were prepared and aliquots seeded in triplicate onto monolayers of Vero cells. Following a 60-minutes infection period, the inoculum was removed and replaced with medium containing 0.3% methyl cellulose. After 3 days, the overlay was removed and the cell monolayer stained with 0.8% crystal violet in 50% ethanol and plaques counted to determine virus yield. Results were presented as % of yield relative to control conditions (DMSO vehicle treatment).

[4] = tested on: wild type HSV-1 (KOS); assay: Western blot assay of accumulation of HSV-1 viral proteins (IE, E, L classes) in SH-SY5Y cells and rat fetal cortex neurons; format: cell-based; conditions: 10 μM; both SH-SY5Y cells and fetal cortex neurons; 8 h post infection
Method: Cell monolayers were pretreated either with DMSO (DM, vehicle control), or the JNK inhibitors D-JNKI-1 (AM, 10 μM) or SP600125 (SP, 40 μM), then infected in the presence of drug for 60 minutes and finally in the presence of drug until the time of harvest, 8 hours post infection. Western blot for tubulin served as a loading control.
The ability of JNK inhibitors to affect accumulation of viral proteins representative of the immediate-early (IE), early (E) or late (L) kinetic classes was evaluated by a Western blot assay.
Unless indicated otherwise, the same materials and methods were applied as for the experiment described under Example 1 and as laid out by Hargett et al., 2005.
Replicate monolayers of rat fetal cortex neurons or ATRA-differentiated SH-SY5Y cells were pre-treated with DMSO, D-JNKI-1 (10 μM) or […] (40 μM) for 30 minutes, and then infected with wild type HSV-1 (KOS) or ICP27 null mutant d27 at a multiplicity of infection (MOI) of 5, or mock-infected under pre-treatment conditions for 60 minutes. The inoculum was removed and incubation continued under the pretreatment conditions until the time of harvest. Whole cell lysates were prepared at 8 h post infection. Aliquots of lysates were separated on 12% gels by standard polyacrylamide gel electrophoresis (SDS-PAGE) procedures. […]

[5] = tested on: KOS strain of HSV-1; assay: single cycle herpes simplex virus infection assay (virus yield), ATRA-differentiated SH-SY5Y human neuroblastoma cells; format: cell-based; conditions: for virus yield, % of control: DMSO = 100; for activity at 40 µM: Human alphaherpesvirus 1, Neuroblastoma cell
Method: as §1, §2, §3, §4, §5

[6] = tested on: reovirus T3D; conditions: cited from earlier work

For “DQSRPVQPFLNLTTPRKPRPPRRRQRRKKRG (SEQ ID NO: 2) ([dD][dQ][dS][dR][dP][dV][dQ][dP][dF][dL][dN][dL][dT][dT][dP][dR][dK][dP][dR][dP][dP][dR][dR][dR][dQ][dR][dR][dK][dK][dR]G) [AM-111, 31-amino acid cell-permeable peptide, formulated in a biocompatible hyaluronic acid gel]”, the “Complete ASNHL-Related Tinnitus Remission in the Treated Ear, Frequency (%)” value (“Complete ASNHL-Related Tinnitus Remission … (%)” below) ([1]; All Subjects, 0.4 mg/mL, N = 50, Time point: Overall (90 days), placebo 28 (54.9%), p 0.151) was 35 (70.0%), the “Complete ASNHL-Related Tinnitus Remission … (%)” value ([1]; All Subjects, 2.0 mg/mL, N = 56, Overall, placebo 28 (54.9%), p 1.000) was 31 (55.4%) and the “Number of Subjects with Tinnitus/Number of Subjects with Observation (%)” value ([1]; 0.4 mg/mL i.t.) was 38.0%. For the same compound, the “Number of Subjects with Tinnitus/Number of Subjects with Observation (%)” value ([1]; 2.0 mg/mL i.t.) was 51.9%, the “Complete ASNHL-Related Tinnitus Remission … (%)” value ([1]; Mild to Moderate Subgroup, 0.4 mg/mL, N = 25, Overall, placebo 22 (78.6%), p 0.732) was 21 (84.0%) and the “Complete ASNHL-Related Tinnitus Remission … (%)” value ([1]; Mild to Moderate Subgroup, 2.0 mg/mL, N = 27, Overall, placebo 22 (78.6%), p 0.245) was 17 (63.0%). For the same compound, the “complete tinnitus remission, difference between AM-111 treatment groups and placebo” value ([1]; subgroup mild to moderate hearing loss, 0.4 and 2.0 mg/mL) was “no statistically significant differences” and the otoprotection [2] was “otoprotective”.

With “DQSRPVQPFLNLTTPRKPRPPRRRQRRKKRG (SEQ ID NO: 2) (not fully specified (some residues); also: D-amino acids (positions not given here)) [D-JNKI-1]” the “virus yield, % of control” value ([3]; 10 μM, fetal rat neurons, DMSO = 100) was 12%, the Pfu/culture ([3]; 10 μM, fetal rat neurons) was 1.67 × 10^5 Pfu/culture and the “virus yield (in words)” value ([3]; rat cortex neurons) was “substantially reduced”. The “L (gC and Us11) protein accumulation” value [4] was “severe reduction”, the “accumulation of IE (ICP27) and E (ICP8) proteins” value [4] was “moderate reductions” and the “virus yield (in words)” value [5] was “substantially reduced”. The “virus yield, % of control” value ([5]; First experiment, 10 μM) was 37%, the Pfu/culture ([5]; First experiment, 10 μM, MOI 5, harvest 20 h postinfection, DMSO 3.5 × 10^5) was 1.27 × 10^5 Pfu/culture and the Pfu/culture ([5]; Second experiment, 10 μM, DMSO 8.5 × 10^5) was 2.23 × 10^5 Pfu/culture. The “virus yield, % of control” value ([5]; Second experiment, 10 μM) was 26%, the Pfu/culture ([5]; Second experiment, 20 μM, DMSO 8.5 × 10^5) was 2.06 × 10^5 Pfu/culture and the “virus yield, % of control” value ([5]; Second experiment, 20 μM) was 24%. For the same compound, the “survival of intracerebrally infected mice” value ([6]; otherwise lethal challenge with T3D (100×50% lethal dose)) was “significantly prolonged survival”, the CNS injury ([6]; reovirus-infected mice) was “reduced CNS injury” and the c-Jun activation ([6]; reovirus-infected mice) was “reduced c-Jun activation”. The neuronal apoptosis ([6]; reovirus-infected mice) was “reduced neuronal apoptosis” and the “viral titer or viral antigen distribution” value ([6]; reovirus-infected mice) was “without altering”.

For `Oc1c2ccccc2c2c3c(cccc13)N=N2` [SP600125, reference compound], the Pfu/culture ([3]; 40 μM, fetal rat neurons) was 8.0 × 10^5 Pfu/culture, the activity at 40 µM ([3]; Human alphaherpesvirus 1, Neuron, 40 μM, fetal rat neurons, DMSO = 100, read-out: virus yield, % of control) was 60% and the Pfu/culture ([5]; First experiment, 40 μM, MOI 5, harvest 20 h postinfection, DMSO 3.5 × 10^5) was 2.57 × 10^5 Pfu/culture. The activity at 40 µM ([5]; read-out: virus yield, % of control, First experiment, 40 μM, DMSO = 100) was 72%, the activity at 40 µM ([5]; read-out: virus yield, % of control, Second experiment, 40 μM, DMSO = 100) was 20% and the Pfu/culture ([5]; Second experiment, 40 μM, DMSO 8.5 × 10^5) was 1.76 × 10^5 Pfu/culture.
